Measurements taken from the METLIN SMRT retention time set (Domingo-Almenara et al. 2019).

experiment: gradient 5% acetonitrile 3 min, to 50% in 2 min, to 85% in 15 min, held 3 min, 100 µL/min; settings: column: Zorbax Extend-C18 2.1 x 50 mm; eluents: water / acetonitrile, 0.1% formic acid
Procedure, shortened: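 The system's dead and dwell volumes were 40 μL and 900 μL, with a Zorbax Extend-C18 column (2.1 × 50 mm, 1.8 μm) run at 100 μL/min in water and acetonitrile containing 0.1% formic acid each. Pure standards were analyzed in mixtures of ~100 molecules by HPLC–quadrupole time-of-flight mass spectrometry in positive and negative ionization mode. Retention time was assigned from computationally picked, manually inspected adduct peaks.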

SMILES | RP-LC retention time [s]
Cc1ccnc(NC(=O)C2CCCN(S(=O)(=O)c3cc(-c4noc(C5CCC5)n4)cs3)C2)c1 (stereo not drawn) | 891
O=C1NC2(CCN(C(=O)c3c(F)cccc3F)CC2)N=C1c1cccc(F)c1 | 815
COc1ccc(-c2nnc(-c3cc(S(=O)(=O)Nc4cccnc4)ccc3Cl)o2)cc1 | 803
CCOc1ccccc1NC(=O)CSc1cc(N2CCN(c3ccc(OC)cc3)CC2)ncn1 | 1090
COc1ccc(-c2noc(Cn3ccn(-c4c(C)cccc4C)c(=O)c3=O)n2)cc1OC | 797
Cc1ccc(CNC(=O)C2CCN(c3cn[nH]c(=O)c3)CC2)cc1 | 644
CCOC(=O)C1CCN(C(=O)C2CCN(S(=O)(=O)c3ccc(OCC)cc3)CC2)CC1 | 878
CCOC(=O)C(C)Oc1ccc2c(c1)O/C(=C\c1cc(Cl)cc3c1OCOC3)C2=O (stereo not drawn) | 1160
O=C(O)Cc1sc(-c2ccccc2)nc1-c1ccc(Cl)cc1 | 1140
COC(=O)Nc1ccc(CC(=O)NCc2cccs2)cc1 | 662
COC1C(=O)N(CC2CC2)C12CCN(S(=O)(=O)c1cccc3cccnc13)CC2 (stereo not drawn) | 790
CNC(=O)C1CCCN(c2nc3ncn(CC(=O)Nc4cc(OC)ccc4OC)c(=O)c3s2)C1 (stereo not drawn) | 705
Cc1ccccc1N1C(=O)CN(S(=O)(=O)c2ccccc2)CC1(C)C(=O)NCc1ccc(F)cc1 (stereo not drawn) | 913
COc1ccccc1N1CCN(c2cc(SCC(=O)Nc3ccccc3F)ncn2)CC1 | 1100
CN(CC1COCCO1)c1ccc(C(=O)O)cc1NC(=O)c1ccccc1Cl (stereo not drawn) | 771
CC(Oc1ccccc1)c1nc(-c2ccc3nnn(C)c3c2)no1 (stereo not drawn) | 1060
Cc1ccc(NC(=O)c2cc(C(C)C)n3nccc3n2)c(F)c1 | 1270
CCOC(=O)c1cnc2nc(C)ccc2c1Nc1cc(OC)cc(OC)c1 | 720
COC(=O)c1ccc(Cl)cc1NC(=O)N1CCc2nc[nH]c2C1 | 644
Cc1ccc(-c2noc(Cn3ccn(-c4c(C)cccc4C)c(=O)c3=O)n2)cc1 | 925
CC1=C(C#N)C(C)(C)C(C#N)=C(C)N1 | 804

SMILES | RP-LC retention time [s]
CCOc1ccc(S(=O)(=O)N2CCC(c3noc(-c4cccc(F)c4)n3)CC2)cc1 | 1190
Cc1ccc(C)c(NC(=O)Cn2c(C)cc(-c3nnc(C)o3)c2C)c1 | 796
Cc1cc(C(=O)Nc2c(F)c(F)c(F)c(F)c2F)n(-c2ccccc2)n1 | 917
Cc1ccc(-c2nc(C)cc(SCC(=O)Nc3cc(C)ccc3C)n2)cc1 | 1210
Cn1ncc(N2CCC(C(=O)N3CCN(C(=O)C4COc5ccccc5O4)CC3)CC2)cc1=O (stereo not drawn) | 659
COc1cccc(N2CCN(C(=O)C3CCN(S(=O)(=O)c4cn(C(C)C)cn4)CC3)CC2)c1 | 764
CCOc1ccc(NC(=O)c2nc(N(C)C)c3c(C)cc(C)nc3n2)cc1 | 661
CN(C(=O)Cn1nc2n(c1=O)CCCC2)c1ccccc1 | 632
COc1ccc(C2Cn3cnc(C(=O)N4CCC(C(=O)NCCC5=CCCCC5)CC4)c3CO2)cc1 (stereo not drawn) | 831
CCOc1ccccc1NC(=O)NCC(c1cccnc1)c1c[nH]c2ccccc12 (stereo not drawn) | 684
CCCc1ccc(S(=O)(=O)N2CCC(n3c(-c4ccoc4)nc4cccnc43)C2)cc1 (stereo not drawn) | 1020
COc1ccc(OC)c(S(=O)(=O)Nc2ccc3c(c2)CCC(=O)N3C)c1 | 675
O=C(NCc1ccccn1)c1cn(-c2cc(N3CCOCC3)ncn2)cn1 | 581
CC1CCCN(C(=O)c2cc3c(s2)N(C)CCC3)C1 (stereo not drawn) | 976
O=C(NC1CCN(c2cc(-c3ccccc3)[nH]n2)C1)c1ccc2c(c1)OCO2 (stereo not drawn) | 648
O=C(NCCN1CCCC1)c1cccc(-c2ccc(N3CCCCCC3)nc2)c1 | 574
O=C(CCC1CCCC1)N1CCN(c2nnc3ccc(Cl)cn23)CC1 | 832
CCc1ccc(NC(=O)C2(C)Oc3cccnc3N(CC)C2=O)cc1 (stereo not drawn) | 982
Cc1cccc(N2CCN(C(=O)c3cc(C4CC4)[nH]n3)CC2)c1C | 921
COC(=O)CC(NC(=O)N1CCCn2nc(-c3cccnc3)cc2C1)c1ccccc1 (stereo not drawn) | 596

The remaining lines, values ahead:

RP-LC retention time [s] | SMILES
557 | CCn1nccc1C(=O)N1CCC(Nc2ncnc3c2CCC3)CC1
704 | N#Cc1c(NC(=O)CSc2nnc3ccccn23)sc2c1CCC2
688 | CCOC(=O)c1ccc(NC(=O)NCC2CCN(Cc3ccc(C)cc3)C2)cc1 (stereo not drawn)
1110 | CCOc1ccc(NC(=O)c2cn(-c3cc(N4CCCCC4C)ncn3)cn2)cc1 (stereo not drawn)
855 | Cc1cc(-c2nn3c(COc4ccccc4)nnc3s2)no1
793 | O=C(CCSc1ccccc1)Nc1cc(-c2cccs2)nn1CCO
873 | CCC1CN(C(=O)N2CCC(C(=O)NCCCOC(C)C)CC2)c2cc(C)ccc2O1 (stereo not drawn)
715 | Clc1ccc2nc(-c3ccc(N4CCOCC4)cc3)c(Nc3ccc4c(c3)OCO4)n2c1
920 | COC(=O)C1=CN(c2ccc(F)cc2C)c2ccc(F)cc2S1(=O)=O
669 | COCc1cc(=O)n2c(n1)N(Cc1cccc(C#N)c1)CC2
733 | CSc1cccc(NC(=O)c2[nH]c3cc(C)sc3c2CN2CCOCC2)c1
888 | CCc1ccc(OCC(=O)Nc2nnc(C3CC(=O)N(c4ccc(Cl)cc4)C3)o2)cc1 (stereo not drawn)
802 | COc1ccc(NC(=O)N2CCC(n3cnc4ccc(Cl)cc4c3=O)CC2)cc1
870 | COc1cccc(NC(=O)N2CCC3(CC2)N=C(c2ccc(Cl)cc2)C(=O)N3)c1
917 | CCn1cc(-c2nc(-c3ccc(OCC(C)C)cc3)no2)c(=O)c2cc(F)c(N3CCOCC3)cc21
754 | CN(C)c1cc2c(cc1NC(=O)Cc1ccccc1Cl)n(C)c(=O)c(=O)n2C
1060 | CCN1C(=O)CCc2cc(NS(=O)(=O)c3ccc(C4CCCCC4)cc3)ccc21
894 | O=C(Cn1c(=O)c(S(=O)(=O)c2ccccc2)cc2ccccc21)NC1CCCCC1
700 | COc1ccc(-c2c(C)noc2NC(C)=O)cc1S(=O)(=O)N1CCN(c2ncccn2)CC1
625 | O=C(CCc1nnn2c1CN(C(=O)c1nccc3ccccc13)CC2)N1CCCC1
667 | Cc1ccc(C(=O)N2CCN(c3nnc4cccc(C)n34)CC2)cc1F
637 | CCc1ccccc1S(=O)(=O)Cc1ccc(C(=O)N2CCN(c3ccccn3)CC2)o1
668 | O=C([C@@H]1C[C@H](F)CN1C(=O)c1ccccc1)N1CCCCC1
663 | Cc1cccc2nnc(N3CCC(C(=O)N4CCC(C)CC4)CC3)n12

RP-LC retention time [s] | SMILES
591 | OCC1CN(C2CCC2)CC12CCN(Cc1ccccc1F)CC2 (stereo not drawn)
801 | CN1C(=O)c2cc(C(=O)N3CCN(c4ccccc4F)CC3)nn2CC1(C)C(=O)NC1CCCC1 (stereo not drawn)
816 | O=C(NCC1CC1)C1CCCN(c2nccn3nc(-c4ccccc4Cl)cc23)C1 (stereo not drawn)
659 | Cc1cccc(-c2[nH]c(C(C)(C)C)nc2-c2ccc3nccnc3c2)n1
1120 | Cc1ccc(NC(=O)Cn2cnc3c(sc4nc(-c5ccccc5)ccc43)c2=O)cc1Cl
797 | COc1ccc(-c2cn3ccn(-c4ccc(C)cc4C)c(=O)c3n2)cc1OC
903 | Cc1ccccc1OCC(=O)N1CC2CN(S(=O)(=O)c3ccc(F)cc3)CC(C1)O2
792 | CSc1ccc(CNC(=O)C2CCCN(c3nn4c(=O)c5c(nc4s3)CCCC5)C2)cc1 (stereo not drawn)
856 | Cc1cccc(NC(=O)COc2cc(C)nc(N3CCN(c4ccccc4)CC3)n2)c1
802 | CCN1C(=O)COc2ccc(-c3noc(CNC(=O)c4ccccc4)n3)cc21
854 | O=C(NCc1ccco1)N1CCCn2nc(-c3cccc(Cl)c3)cc2C1
888 | O=S(=O)(Nc1ccc(F)cc1)c1ccc(-c2nnc(C3CCC3)o2)o1
823 | CC(C)c1cc(C2CCCN2C(=O)NC2CCCC2)on1 (stereo not drawn)
882 | CCc1ccc(C2=C(C)C(N3CCC(C(=O)NCCc4ccco4)CC3)=NS2(=O)=O)cc1
1010 | COc1cc(-c2nnc(-c3cccc(S(=O)(=O)N4CCCCC4)c3)o2)cc(OC)c1OC
621 | O=C(O)c1ccccc1N1C(=O)C2C3C=CC(C3)C2C1=O (stereo not drawn)
748 | CCn1c(=O)c(N2CCN(S(=O)(=O)c3ccc4c(c3)CCC4)CC2)nc2ccncc21
854 | O=c1ccc(S(=O)(=O)N2CCCC2)cn1Cc1ccccc1Cl
982 | Cc1nc(-c2csc(S(=O)(=O)N3CCCC(C(=O)NCCc4ccc(Cl)cc4)C3)c2)no1 (stereo not drawn)
617 | O=C(Nc1nnc(-c2ccsc2)o1)c1ccno1
968 | O=C(Cn1cccc(-c2nc(-c3ccc(Br)cc3)no2)c1=O)Nc1ccccc1
903 | Cc1cc(C)cc(NC(=O)Cn2cc(-c3nnc(C)o3)c3ccccc32)c1
593 | Cc1cnc(C(=O)NCC2CCCCC(=O)N2)cn1 (stereo not drawn)
